For test [1], the system named is Wnt-responsive promoter (Sp5-Luc reporter) in SW480 colon carcinoma cells. Briefly: Sp5-Luc reporter gene screening assay for Wnt activity in SW480 cells. Type of test: cell-based, human. As to conditions: Homo sapiens, 36 to 48 hours, luminescence. An outline of the steps: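 SW480 cells stably carrying a luciferase reporter under an Sp5 promoter with eight TCF/LEF sites, plated at 4,000 cells/well in DMEM with 1% FBS and incubated 36 to 48 hours at 37° C. Luminescence normalized to DMSO-only cells; EC50 fitted by four-parameter nonlinear regression.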
(In a reporter assay the amount or activity of a reporter protein is the signal.)

The target in another test is recombinant GSK3β kinase (Homo sapiens (Human), UniProt P49841). Put plainly: GSK3β kinase assay (Ser/Thr 09 peptide Z-lyte, FRET). Type of test: biochemical. Conditions: GSK3β kinase, 46 μM ATP, one hour; method calls values IC50.
recombinant GSK3β kinase, sequence (P49841 whole entry): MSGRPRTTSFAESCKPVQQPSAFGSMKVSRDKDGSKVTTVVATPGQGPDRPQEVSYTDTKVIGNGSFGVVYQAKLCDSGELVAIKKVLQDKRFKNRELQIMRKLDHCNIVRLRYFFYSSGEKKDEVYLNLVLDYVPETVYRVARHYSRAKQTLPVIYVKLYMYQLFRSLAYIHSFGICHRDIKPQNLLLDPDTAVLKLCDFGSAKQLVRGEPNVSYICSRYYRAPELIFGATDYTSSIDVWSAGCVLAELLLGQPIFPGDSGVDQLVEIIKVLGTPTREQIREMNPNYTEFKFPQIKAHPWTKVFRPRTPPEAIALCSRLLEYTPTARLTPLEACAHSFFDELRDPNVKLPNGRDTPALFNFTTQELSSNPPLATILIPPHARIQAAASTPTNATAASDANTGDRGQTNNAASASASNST
Test [2] relates to SW480 colon carcinoma cells. Put plainly: Cell viability assay (CellTiter-Glo) in SW480 cells. Type of test: cell-based, human. As to conditions: Homo sapiens, 96 h, four days. (In general: ATP-based viability assays read luminescence as a measure of living cells.)
The test system of test [3] is primary human fibroblasts derived from IPF patients (LL29 cells), α-smooth muscle actin. Briefly: Inhibition of fibrotic process: αSMA in TGF-β1 treated LL29 fibroblasts. Type of test: cell-based. Conditions: Homo sapiens, Fibroblast; for pEC50: 96 h, LL29 cells, TGF-β1 20 ng/mL, 4 days, % cells positive for αSMA; for inhibition at 10 µM: read-out: percent inhibition at 10 μM. In short, it runs like this: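 LL29 fibroblasts from IPF patients, in F12 medium with 1% FBS, treated with TGF-β1 plus compound; TGF-β1 with DMSO as positive control, DMSO alone as negative control. After 4 days' incubation, SYTOX green nucleic acid stain added at 1 μM final, 30 min at room temperature.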

In another test the test system is IL-6. Put plainly: IL-6 inhibition in LPS-stimulated human peripheral blood mononuclear cells (HTRF). Type of test: cell-based. As to conditions: Homo sapiens, PBMC; for pEC50: huPBMCs, LPS 50 ng/mL, 22 hours, IL-6 HTRF; for inhibition at 10 µM: read-out: percent inhibition at 10 μM. An outline of the steps:
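Fresh human PBMCs at 1×10e6 cells/mL in 1% FBS-RPMI were pretreated with compound for 2 h, then stimulated with 50 ng/mL E. coli 0111:B4 LPS for a further 22 h at 37 °C. IL-6 was measured by HTRF (665/620 nm ratio). Values were normalized to DMSO and fitted 4-parameter for EC50.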
On the technique in general: In TR-FRET formats the signal depends on donor and acceptor labels being close together.

The target in test [4] is recombinant DYRK1A kinase (Homo sapiens (Human), UniProt Q13627). Briefly: DYRK1A kinase assay (Ser/Thr 18 peptide Z-lyte, FRET). As to conditions: DYRK1A kinase, 30 μM ATP, one hour; method calls values IC50.
Protocol: Each compound was dissolved in DMSO as a 10 mM stock and used to prepare compound source plates.
This is a non-radioactive assay using fluorescence resonance energy transfer (FRET) between coumarin and fluorescein to detect kinase activity which is represented as a ratio of coumarin emission/fluorescein emission.
The mixture was allowed to incubate with the representative compounds for one hour at room temperature. All reactions were performed in duplicate. Unphosphorylated (“0% Control”) and phosphorylated (“100% control”) forms of Ser/Thr 18 served as control reactions. Additionally, an 11-point dose-response curve of Staurosporine (1 uM top) was run to serve as a positive compound control.
After incubation, Development Reagent A was diluted in Development Buffer then added to the reaction and allowed to further incubate for one hour at room temperature.
Dose-response curves were generated and inhibitory concentration (IC50) values were calculated using non-linear regression curve fit in the Dotmatics' Studies Software (Bishops Stortford, UK).

This passage reports EC50 and inhibition results from patent US10744128B2, “6-(5-membered heteroaryl)isoquinolin-3-yl-(5-membered heteroaryl) carboxamides and preparation and use thereof” (Samumed, LLC, priority 2017, dated 2020).

pEC50: −log10 of the molar value.

In general, pEC50 refers to −log10 of the EC50, conventionally taken in molar units. Consider `Cn1cncc1-c1ccc2cnc(NC(=O)c3cnn(C4CC4)c3)cc2c1` [Compound 44, 1-Cyclopropyl-N-(6-(1-methyl-1H-imidazol-5-yl)isoquinolin-3-yl)-1H-pyrazole-4-carboxamide], for which the negative logarithm of the EC50 (pEC50) was 7.43 in test [1]; 5.78 on recombinant GSK3β kinase; 7.03 in test [2]; 6.94 in test [3]; 6.45 with IL-6; 9.00 in test [4].
With `CC(C)Cn1cc(C(=O)Nc2cc3cc(-c4cncn4C)ccc3cn2)cn1` [Compound 45, 1-Isobutyl-N-(6-(1-methyl-1H-imidazol-5-yl)isoquinolin-3-yl)-1H-pyrazole-4-carboxamide], the pEC50 in test [1] is 7.26; at recombinant GSK3β kinase, 5.92; in test [2] it was 6.95; in test [3] it was 7.06; in the test with IL-6, 6.38; in test [4] it was 9.00.
The inhibition is the change of the read-out against control, counted positive when it falls. Consider `Cn1ccc(C(=O)Nc2cc3cc(-c4cncn4C)ccc3cn2)n1` [Compound 46, 1-Methyl-N-(6-(1-methyl-1H-imidazol-5-yl)isoquinolin-3-yl)-1H-pyrazole-3-carboxamide], for which the pEC50 is 5.90 in test [1]; 5.75 on recombinant GSK3β kinase; 5.66 in test [2]; 5.82 in test [3]; less than 5.00 in the test with IL-6; 8.30 in test [4]. Further, the inhibition at 10 µM in the test with IL-6 turned out to be 46.1%.
`Cn1cc(CC(=O)Nc2cc3cc(-c4cncn4C)ccc3cn2)cn1` [Compound 47, N-(6-(1-methyl-1H-imidazol-5-yl)isoquinolin-3-yl)-2-(1-methyl-1H-pyrazol-4-yl)acetamide]: the pEC50 is 6.25 in test [1]; 7.54 on recombinant GSK3β kinase; 6.22 in test [2]; 7.03 in test [3]; 6.41 with IL-6; 8.52 in test [4].
As to `Cn1cnc(C(=O)Nc2cc3cc(-c4cncn4C)ccc3cn2)c1` [Compound 48, 1-Methyl-N-(6-(1-methyl-1H-imidazol-5-yl)isoquinolin-3-yl)-1H-imidazole-4-carboxamide], the pEC50 was 5.94 in test [1]; 5.47 on recombinant GSK3β kinase; 5.45 in test [2]; less than 5.00 in test [3]; less than 5.00 in the test on IL-6; 7.74 in test [4]. The inhibition at 10 µM in test [3] was 6.7%; in the test on IL-6, 17.8%.
As for `CC(C)n1cnc(C(=O)Nc2cc3cc(-c4cncn4C)ccc3cn2)c1` [Compound 49, 1-Isopropyl-N-(6-(1-methyl-1H-imidazol-5-yl)isoquinolin-3-yl)-1H-imidazole-4-carboxamide], the pEC50 in test [1] was 7.46; at recombinant GSK3β kinase, 5.87; in test [2], 7.14; in test [3] it was 7.07; with IL-6 it was 6.55; in test [4] it was 8.70.
As to `Cn1cncc1-c1ccc2cnc(NC(=O)c3cn(C4CCOCC4)cn3)cc2c1` [Compound 50, N-(6-(1-Methyl-1H-imidazol-5-yl)isoquinolin-3-yl)-1-(tetrahydro-2H-pyran-4-yl)-1H-imidazole-4-carboxamide], the pEC50 in test [1] is 7.00; on recombinant GSK3β kinase, 5.35; in test [2], 6.08; in test [3], 5.93; in the test with IL-6, 5.48; in test [4] it was 7.68.
Turning to `Cc1ncc(C(=O)Nc2cc3cc(-c4cncn4C)ccc3cn2)n1C` [Compound 51, 1,2-Dimethyl-N-(6-(1-methyl-1H-imidazol-5-yl)isoquinolin-3-yl)-1H-imidazole-5-carboxamide], the pEC50 in test [1] is 6.33; on recombinant GSK3β kinase, 6.19; in test [2] it was 6.07; in test [3], less than 5.00; in the test with IL-6 it was less than 5.00; in test [4], 8.40. Moreover, the inhibition at 10 µM was 6.5% in test [3] and 10.9% in the test with IL-6.
As to `Cn1cnc(C(=O)Nc2cc3cc(-c4cncn4C)ccc3cn2)n1` [Compound 52, 1-Methyl-N-(6-(1-methyl-1H-imidazol-5-yl)isoquinolin-3-yl)-1H-1,2,4-triazole-3-carboxamide], the pEC50 in test [1] was 5.66; on recombinant GSK3β kinase, 5.30; in test [2], 5.44; in test [3], less than 5.00; in the test with IL-6, less than 5.00; in test [4], 8.05. Besides, the inhibition at 10 µM in test [3] is 33.8%; in the test on IL-6, 1.1%.
Consider `Cc1nc(C(=O)Nc2cc3cc(-c4cncn4C)ccc3cn2)co1` [Compound 53, 2-Methyl-N-(6-(1-methyl-1H-imidazol-5-yl)isoquinolin-3-yl)oxazole-4-carboxamide], for which the pEC50 is 5.72 in test [1]; 6.09 on recombinant GSK3β kinase; 5.50 in test [2]; 5.62 in test [3]; less than 5.00 in the test on IL-6; 7.85 in test [4]. Moreover, the inhibition at 10 µM in the test with IL-6 amounted to 47.5%.
`CC(C)c1nc(C(=O)Nc2cc3cc(-c4cncn4C)ccc3cn2)co1` [Compound 54, 2-Isopropyl-N-(6-(1-methyl-1H-imidazol-5-yl)isoquinolin-3-yl)oxazole-4-carboxamide]: the pEC50 was 5.67 in test [1]; 5.72 on recombinant GSK3β kinase; 5.43 in test [2]; 5.49 in test [3]; 5.19 in the test on IL-6; 7.74 in test [4].
As to `Cc1coc(C(=O)Nc2cc3cc(-c4cncn4C)ccc3cn2)n1` [Compound 55, 4-Methyl-N-(6-(1-methyl-1H-imidazol-5-yl)isoquinolin-3-yl)oxazole-2-carboxamide], the pEC50 is 5.95 in test [1]; 6.01 on recombinant GSK3β kinase; 5.51 in test [2]; 5.42 in test [3]; 5.02 in the test on IL-6; 8.15 in test [4].
`Cc1csc(C(=O)Nc2cc3cc(-c4cncn4C)ccc3cn2)n1` [Compound 56, 4-Methyl-N-(6-(1-methyl-1H-imidazol-5-yl)isoquinolin-3-yl)thiazole-2-carboxamide]: the pEC50 in test [1] was 5.64; on recombinant GSK3β kinase, 5.00; in test [2], 5.51; in test [3] it was 5.50; in the test with IL-6, 5.05; in test [4] it was 8.30.
For the compound `Cc1nc(C(=O)Nc2cc3cc(-c4cncn4C)ccc3cn2)cs1` [Compound 57, 2-Methyl-N-(6-(1-methyl-1H-imidazol-5-yl)isoquinolin-3-yl)thiazole-4-carboxamide], the pEC50 in test [1] was 5.59; on recombinant GSK3β kinase, 5.79; in test [2] it was 5.74; in test [3] it was 5.55; in the test with IL-6, less than 5.00; in test [4], 8.22. For the same compound, the inhibition at 10 µM in the test on IL-6 is 19.6%.
With `Cc1nnc(C(=O)Nc2cc3cc(-c4cncn4C)ccc3cn2)o1` [Compound 58, 5-Methyl-N-(6-(1-methyl-1H-imidazol-5-yl)isoquinolin-3-yl)-1,3,4-oxadiazole-2-carboxamide], the pEC50 in test [1] was 5.88; on recombinant GSK3β kinase it was 5.36; in test [2], 5.53; in test [3], 5.89; with IL-6, less than 5.00; in test [4], 8.05. Besides, in the test on IL-6, the inhibition at 10 µM turned out to be 9.5%.
In the case of `Cc1nnc(C(=O)Nc2cc3cc(-c4cncn4C)ccc3cn2)s1` [Compound 59, 5-Methyl-N-(6-(1-methyl-1H-imidazol-5-yl)isoquinolin-3-yl)-1,3,4-thiadiazole-2-carboxamide], the pEC50 in test [1] was 5.72; at recombinant GSK3β kinase, 5.85; in test [2], 5.48; in test [3], 5.85; with IL-6, less than 5.00; in test [4], 8.40. In the test with IL-6, the inhibition at 10 µM was determined as 0%.
As for `Cc1ncc(-c2ccc3cnc(NC(=O)c4cnn(C)c4)cc3c2)n1C` [Compound 60, N-(6-(1,2-Dimethyl-1H-imidazol-5-yl)isoquinolin-3-yl)-1-methyl-1H-pyrazole-4-carboxamide], the pEC50 in test [1] was 6.92; at recombinant GSK3β kinase, 5.40; in test [2], 6.39; in test [3] it was 6.11; in the test with IL-6, 5.80; in test [4], 8.40.
In the case of `Cc1ncc(-c2ccc3cnc(NC(=O)c4cnn(C(C)C)c4)cc3c2)n1C` [Compound 61, N-(6-(1,2-Dimethyl-1H-imidazol-5-yl)isoquinolin-3-yl)-1-isopropyl-1H-pyrazole-4-carboxamide], the negative-log EC50 (pEC50) in test [1] was 7.20; at recombinant GSK3β kinase, 5.17; in test [2], 6.95; in test [3], 6.50; with IL-6, 6.25; in test [4], 8.30.
